Measured values taken from patent publication US12704504B2, “Derivatization of beta-lactam antibiotics as calibrators/ISTD in massspec measurements” (Roche Diagnostics Operations, Inc., priority 2019, dated 2026).

Test: Stability in water at room temperature, LC-MS/MS peak areas over 16 h
Assay type: physicochemical
Settings: 5 μg/mL, 0-16 h
Source text: The stability of native Piperacillin as well as its hydrolyzed forms was investigated (compounds 5, 9a, 9b and 10, respectively. From the hydrolysis pathway of Piperacillin (compound 5, see schematic drawing in FIG. 1) it is obvious that this compound hydrolyzed both on the piperazin ring and the lactam moiety, only one of both compounds is monitored to account for the loss or degradation of native Piperacillin (compound 5)). To this end, these compounds were freshly weighed and dissolved in water at a concentration of 1 mg/mL by rolling or stirring for 15 minutes at room temperature. Subsequently, these compounds were diluted to 5 μg/mL and measured with a suitable LC-MS/MS method at timepoints 0, 2, 4, 6, 8 and 16 h. For this, a Sunshell C18 (2.6 μm, 2.1 mm×50 mm) column with Solvent A: water with 0.1% HCOOH and Solvent B: CH3CN with 0.1% HCOOH and a flow of 0.6 mL per minute were used on an Agilent Infinity II multisampler/Pump system connected to an AB Sciex 6500+MS. The peaks were integrated using MultiQuant software and the areas of these peaks depicted in the graphs in FIGS. 2A and 2B.
The stability of double butylamide variants of Piperacillin (compound 7, see FIG. 4) was investigated at 2 MRMs using the identical protocol as in Examples 1.

Compound: CCN1CCN(C(=O)N[C@@H](C(=O)N[C@@H]2C(=O)N3[C@@H]2SC(C)(C)[C@@H]3C(=O)O)c2ccccc2)C(=O)C1=O [Piperacillin]
- course of obtained peak-areas over time: decreasing
